The values below come from paper PMC5650741 (ACS infectious diseases, 2017).

Molecules are shown by their SMILES.

One may read the Ki as a measure of affinity in units of concentration, obtained from inhibition or displacement. High values mean weaker binding, low ones tighter binding.

For the test, the target named is T1, E. coli DXP synthase (DXPS) (Escherichia coli, UniProt P77488).
T1 sequence (P77488 2-620): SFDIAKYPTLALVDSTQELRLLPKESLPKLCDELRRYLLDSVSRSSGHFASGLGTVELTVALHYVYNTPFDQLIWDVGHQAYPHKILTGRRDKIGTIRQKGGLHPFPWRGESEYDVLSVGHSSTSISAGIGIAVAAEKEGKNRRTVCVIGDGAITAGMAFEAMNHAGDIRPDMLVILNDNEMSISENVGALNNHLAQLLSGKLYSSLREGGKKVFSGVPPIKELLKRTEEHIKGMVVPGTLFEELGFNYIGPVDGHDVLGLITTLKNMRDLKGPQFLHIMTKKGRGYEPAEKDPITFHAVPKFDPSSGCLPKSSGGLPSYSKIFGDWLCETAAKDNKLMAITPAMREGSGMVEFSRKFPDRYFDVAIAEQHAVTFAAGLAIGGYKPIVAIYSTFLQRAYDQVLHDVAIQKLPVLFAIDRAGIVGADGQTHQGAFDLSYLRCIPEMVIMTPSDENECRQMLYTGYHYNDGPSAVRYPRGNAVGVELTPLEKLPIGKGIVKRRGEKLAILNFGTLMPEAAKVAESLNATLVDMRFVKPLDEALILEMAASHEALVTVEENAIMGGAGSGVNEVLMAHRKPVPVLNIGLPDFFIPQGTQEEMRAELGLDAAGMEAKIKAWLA
Briefly: IspC-coupled NADPH consumption at […] nm. Format: biochemical.

Compound `CCCOP(=O)(O)C(C)=O` [compound 3, alkylAP 3] yielded a Ki of 7.1 ± 0.8 µM.
The compound `CCCCCCCCOP(=O)(O)C(C)=O` [compound 7, octylacetylphosphonate] showed a Ki of 1.4 ± 0.2 µM.
